Data published in ChEMBL document CHEMBL5579871, “Novel Papain-Like Protease Inhibitors for Treating Viral Infections, in particular, Coronavirus Infections” (ACS Med Chem Lett, 2024).

Each compound was assayed against Replicase polyprotein 1ab (Severe acute respiratory syndrome coronavirus 2, UniProt P0DTD1) (assay: Inhibition of SARS-CoV-2 papain-like protease using Z-RLRGG-AMC as fluorogenic substrate preincubated for 30 mins followed by substrate addition and measured after 60 mins by plate reader assay).

`Cc1ccc(N2CCN(C)CC2)cc1C(=O)N[C@H](C)c1cc(-c2cnn(C)c2)cc(-c2cccs2)c1` and `Cc1ccc(N2CCN(C)CC2)cc1C(=O)N[C@H](C)c1cc(-c2cnn(C)c2)cc(-c2cc(Cl)cnc2N)c1` are within 1.5-fold of each other in IC50: 4 nM for the first, 3 nM for the second.

`Cc1ccc(NC(=O)[C@H]2CCCCN2)cc1C(=O)N[C@H](C)c1cc(-c2cnn(C)c2)cc(-c2cccs2)c1` and `Cc1ccc(N2CCNCC2)cc1C(=O)N[C@H](C)c1cc(-c2cnn(C)c2)cc(-c2cc(Cl)cnc2N)c1` are the same in IC50: 4 nM for the first, 4 nM for the second.

`Cc1cc(C(=O)NCc2cscn2)ccc1C(=O)N[C@H](C)c1cc(-c2cnn(C)c2)cc(-c2ccns2)c1` and `Cc1cc(CNCc2cscn2)ccc1C(=O)N[C@H](C)c1cc(-c2cnn(C)c2)cc(-c2ccns2)c1` are the same in IC50: 3 nM for the first, 3 nM for the second.
